In ChEMBL document CHEMBL5321222, “N(14)-substituted evodiamine derivatives as dual topoisomerase 1/tubulin-Inhibiting anti-gastrointestinal tumor agents” (Eur J Med Chem, 2023):
Activity calls are given as the source filed them. No cut-off for these calls is given here.

Columns and labels:
RKO [1] = experiment: Antiproliferative activity against human RKO cells assessed as reduction in cell viability incubated for 72 hrs by MTT assay; type: functional, cell-based
HGC-27 = experiment: Antiproliferative activity against human HGC-27 cells assessed as reduction in cell viability incubated for 72 hrs by MTT assay; type: functional, cell-based; conditions: HGC-27, 72 h
GES1 = experiment: Antiproliferative activity against human GES1 cells assessed as reduction in cell viability incubated for 72 hrs by MTT assay; type: functional, cell-based; conditions: GES1, 72 h
LoVo = experiment: Antiproliferative activity against human LoVo cells assessed as reduction in cell viability incubated for 72 hrs by MTT assay; type: functional, cell-based
MGC-803 [2] = experiment: Antiproliferative activity against human MGC-803 cells assessed as reduction in cell viability incubated for 72 hrs by MTT assay; type: functional, cell-based; conditions: MGC-803, 72 h
SGC-7901 = experiment: Antiproliferative activity against human SGC-7901 cells assessed as reduction in cell viability incubated for 72 hrs by MTT assay; type: functional, cell-based; conditions: SGC-7901, 72 h
SW480 = experiment: Antiproliferative activity against human SW480 cells assessed as reduction in cell viability incubated for 72 hrs by MTT assay; type: functional, cell-based; conditions: SW480, 72 h
[3] = molecular target: T1, DNA topoisomerase 1 (Homo sapiens) (UniProt P11387); experiment: Inhibition of topoisomerase 1 (unknown origin) at 200 uM using PBR322 DNA as substrate incubated for 30 mins by agarose gel electrophoresis
T1 sequence (whole entry): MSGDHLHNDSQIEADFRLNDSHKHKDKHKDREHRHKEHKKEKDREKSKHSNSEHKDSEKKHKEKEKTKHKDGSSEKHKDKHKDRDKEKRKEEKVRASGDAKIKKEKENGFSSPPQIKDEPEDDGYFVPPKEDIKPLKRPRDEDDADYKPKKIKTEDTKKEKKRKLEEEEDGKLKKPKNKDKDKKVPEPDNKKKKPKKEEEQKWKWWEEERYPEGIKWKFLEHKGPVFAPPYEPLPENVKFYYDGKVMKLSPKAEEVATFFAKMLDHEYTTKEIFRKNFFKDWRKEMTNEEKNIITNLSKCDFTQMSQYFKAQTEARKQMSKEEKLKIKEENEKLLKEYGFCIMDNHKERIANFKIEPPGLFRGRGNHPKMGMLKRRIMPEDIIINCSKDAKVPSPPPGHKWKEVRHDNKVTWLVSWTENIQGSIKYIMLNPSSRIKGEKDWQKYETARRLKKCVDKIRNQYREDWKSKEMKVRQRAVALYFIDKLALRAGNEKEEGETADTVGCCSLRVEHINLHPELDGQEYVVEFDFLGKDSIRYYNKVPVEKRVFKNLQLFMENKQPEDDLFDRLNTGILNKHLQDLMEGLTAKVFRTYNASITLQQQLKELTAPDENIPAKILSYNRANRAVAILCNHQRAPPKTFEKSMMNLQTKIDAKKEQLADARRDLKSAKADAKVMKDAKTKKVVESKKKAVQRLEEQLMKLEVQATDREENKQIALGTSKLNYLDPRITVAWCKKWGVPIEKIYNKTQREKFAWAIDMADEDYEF

MGC-803 [4] = experiment: Induction of cell cycle arrest in human MGC-803 cells assessed as accumulation of cells at G2/M phase at 0.2 uM incubated for 24 hrs by propidium iodide staining based flow cytometry analysis; type: functional
RKO [5] = experiment: Induction of morphological changes in human RKO cells at 0.2 uM incubated for 24 hrs by Giemsa staining based micrscopic analysis; type: functional, cell-based
RKO [6] = experiment: Induction of apoptosis in human RKO cells assessed as early apoptotic cells at 0.2 uM incubated for 24 hrs by propidium iodide and Annexin V/FITC staining based flow cytometry assay (reference value: 0.16%); type: functional
MGC-803 [7] = experiment: Induction of apoptosis in human MGC-803 cells assessed as late apoptotic cells at 0.2 uM incubated for 24 hrs by propidium iodide and Annexin V/FITC staining based flow cytometry assay (reference value: 4.10%); type: functional
RKO [8] = experiment: Induction of cell cycle arrest in human RKO cells assessed as accumulation of cells at G2/M phase at 0.2 uM incubated for 24 hrs by propidium iodide staining based flow cytometry analysis; type: functional
MGC-803 [9] = experiment: Induction of apoptosis in human MGC-803 cells assessed as early apoptotic cells at 0.2 uM incubated for 24 hrs by propidium iodide and Annexin V/FITC staining based flow cytometry assay (reference value: 1.85%); type: functional
MGC-803 [10] = experiment: Inhibition of cell […] in human MGC-803 cells at 50 nM incubated for 24 hrs by scratch wound healing assay; type: functional, cell-based
RKO [11] = experiment: Inhibition of cell migration in human RKO cells assessed as reduction in tumor wound healing incubated for 24 hrs by microscopic analysis; type: functional, cell-based; conditions: dose 10-90 nM
MGC-803 [12] = experiment: Induction of morphological changes in human MGC-803 cells at 0.2 uM incubated for 24 hrs by Giemsa staining based micrscopic analysis; type: functional, cell-based
RKO [13] = experiment: Induction of apoptosis in human RKO cells assessed as late apoptotic cells at 0.2 uM incubated for 24 hrs by propidium iodide and Annexin V/FITC staining based flow cytometry assay (reference value: 0.50%); type: functional
RKO [14] = experiment: Induction of cell cycle arrest in human RKO cells assessed as accumulation of cells at S phase at 0.2 uM incubated for 24 hrs by propidium iodide staining based flow cytometry analysis; type: functional

Row | SMILES | IC50 (RKO [1]) [nM] | IC50 (HGC-27) [nM] | IC50 (GES1) [nM] | IC50 (LoVo) [nM] | IC50 (MGC-803 [2]) [nM] | IC50 (SGC-7901) [nM] | IC50 (SW480) [nM] | inhibition [3] | Activity (MGC-803 [4]) [%] | Activity (RKO [5]) | Activity (RKO [6]) [%] | Activity (MGC-803 [7]) [%] | Activity (RKO [8]) [%] | Activity (MGC-803 [9]) [%] | inhibition (MGC-803 [10]) | inhibition (RKO [11]) | Activity (MGC-803 [12]) | Activity (RKO [13]) [%] | Activity (RKO [14]) [%]
1 | O=C1c2ccccc2N(Cc2ccccc2)C2c3[nH]c4ccccc4c3CCN12 (centres undefined) | 5960 | 10600 | 15900 | > 30000 | 9340 | 11600 | 13300 |  |  |  |  |  |  |  |  |  |  |  | 
2 | C=CCN1c2ccccc2C(=O)N2CCc3c([nH]c4ccccc34)C21 (centres undefined) | 380 | 1050 |  | 1000 | 60 | 270 | 380 | Active |  |  |  |  |  |  |  |  |  |  | 
3 | CCCCN1c2ccccc2C(=O)N2CCc3c([nH]c4ccccc34)C21 (centres undefined) | 450 | 1700 | 500 | 1990 | 160 | 460 | 1030 |  |  |  |  |  |  |  |  |  |  |  | 
4 | C#CCN1c2ccccc2C(=O)N2CCc3c([nH]c4ccccc34)C21 (centres undefined) | 850 | 1520 | 1200 | 1500 | 210 | 640 | 1220 |  |  |  |  |  |  |  |  |  |  |  | 
5 | C[Si](C)(C)CN1c2ccccc2C(=O)N2CCc3c([nH]c4ccccc34)C21 (centres undefined) | 2210 | > 3000 | 4240 | 7060 | 1780 | 2470 | 3280 |  |  |  |  |  |  |  |  |  |  |  | 
6 | O=C1c2ccccc2N(CCBr)C2c3[nH]c4ccccc4c3CCN12 (centres undefined) | 980 | 2050 | 1340 | 1340 | 550 | 1060 | 970 |  |  |  |  |  |  |  |  |  |  |  | 
7 | COC(=O)CN1c2ccccc2C(=O)N2CCc3c([nH]c4ccccc34)C21 (centres undefined) | 23400 | > 30000 | > 30000 | > 30000 | > 30000 | 6660 | > 30000 |  |  |  |  |  |  |  |  |  |  |  | 
8 | COc1ccc(CCN2c3ccccc3C(=O)N3CCc4c([nH]c5ccccc45)C32)cc1OC (centres undefined) | > 30000 | > 30000 | > 30000 | > 30000 | > 30000 | > 30000 | > 30000 |  |  |  |  |  |  |  |  |  |  |  | 
9 | Cc1ccc(CN2c3ccccc3C(=O)N3CCc4c([nH]c5ccccc45)C32)cc1 (centres undefined) | 12500 | > 30000 | 9740 | > 30000 | 7060 | 6110 | > 30000 |  |  |  |  |  |  |  |  |  |  |  | 
10 | CC[C@@]1(O)C(=O)OCc2c1cc1n(c2=O)Cc2cc3c(CN(C)C)c(O)ccc3nc2-1 [TOPOTECAN] | 420 | 490 | 1060 | 120 | 420 | 690 | 90 | Active | 82.29 | inactive | 14.2 | 3.67 | 31.92 | 5.11 | inactive | inactive | inactive | 19.28 | 67.69
11 | CCCCCN1c2ccccc2C(=O)N2CCc3c([nH]c4ccccc34)C21 (centres undefined) | 1870 | 7740 | 2820 | > 30000 | 750 | 1220 | 4410 |  |  |  |  |  |  |  |  |  |  |  | 
